According to patent publication US20250282753A1, “COMPOUNDS USEFUL FOR REDUCING URIC ACID” (ATOM BIOSCIENCE AMERICA CORPORATION, priority 2022, published 2025):

Tests used:
[1] = allopurinol used at the maximum dose; cited from earlier work
[2] = cited from earlier work; for Sudden cardiac death, number of cases / Sudden cardiac death, share of group: per treatment group
[3] = test system: potassium oxonate-induced hyperuricemic rats; experiment: Serum uric acid in potassium oxonate-induced hyperuricemic rats, single gavage (Example 34); type: in vivo, SD rats; settings: for Uric acid 1 h / Uric acid 3 h / Uric acid 5 h / Uric acid 0 h: serum, mean ± SD; for Uric acid 1 h: 1 h after potassium oxonate injection; for Uric acid 3 h: 3 h after potassium oxonate injection; for Uric acid 5 h: 5 h after potassium oxonate injection; for Uric acid 0 h: before potassium oxonate injection
Procedure: 36 male SD rats weighed approximately 200-230 g after one week of adaptation. […] The drugs in each group were prepared into a corresponding concentration suspension, and the administration volume was 0.5 mL/100 g.
After the rats in each group were purchased and adapted to feeding, they were fasted for 12 h, and intraperitoneally injected with potassium oxonate at a dose of 300 mg/kg to establish the model. After 0.5 h of model establishment, each test drug group was gavaged once. Blood was collected from the retro-orbital venous plexus before and 1, 3, and 5 h after potassium oxonate injection. The samples were centrifuged at 3500 rpm for 10 min. 30 μL of serum was collected to determine the uric acid level at each time point.
The measurement data of each test were expressed as (mean)+standard deviation). The comparison between groups used ANOVA-Dunnett T test to examine the significance. P<0.05 was used as the significance index, and P<0.01 was used as the extremely significant index.

[4] = test system: potassium oxonate-induced hyperuricemic rats; experiment: Serum uric acid in potassium oxonate-induced hyperuricemic rats, 3 days of gavage (Example 35); type: in vivo, SD rats
Procedure: Compound 13 was a light yellow powder, and compounds 38 and 41 are pseudo-white powders, which are triturated with 0.5% CMC-Na just prior to use to prepare a 0.4 mg/mL suspension for gavage.
36 male SD rats weighed approximately 220-240 g after one week of adaptation. […] The drugs in each group were prepared into a corresponding concentration suspension, and the administration volume was 0.5 mL/100 g.
After the rats in each group were purchased and adapted to feeding, they were fasted for 12 h, and, intraperitoneally, injected with⋅ potassium⋅ gxonate at a⋅dose of 300 mg/kg to establish the model. 0.5 h after modeling, each test drug group was gavaged once. The drug was administered continuously for 3 days. On day 3, blood samples was collected from the retro-orbital venous plexus before and 1, 3, and 5 h after potassium oxonate injection. The samples were centrifuged at 3500 rpm for 10 min, and 30 μL of serum was collected to determine the uric acid level at each time point.
The measurement data of each test were expressed as (mean)±standard deviation). The comparison between groups used ANOVA-Dunnett T test to examine the significance. P<0.05 was used as the significance index, and P<0.01 was used as the extremely significant index.

[5] = cited from earlier work
[6] = Febuxostat group vs allopurinol group

Oc1ncnc2[nH]ncc12 [allopurinol]
rate of subjects reaching the treatment endpoint [1]: less than 50%
Sudden cardiac death, number of cases [2]: 56 cases
Sudden cardiac death, share of group [2]: 1.8%

Cc1nc(-c2ccc(OCC(C)C)c(C#N)c2)sc1C(=O)O [Febuxostat, reference compound]
serum uric acid level compared with the model group at the same time point ([3]; 1 mg/kg and 2 mg/kg, 1, 3, and 5 h after modeling, P<0.01): significantly reduce
Uric acid 1 h ([3]; 1 mg/kg gavage once): 78.0 ± 17.5 µmol/L
Uric acid 3 h ([3]; 1 mg/kg gavage once): 63.3 ± 13.8 µmol/L
Uric acid 5 h ([3]; 1 mg/kg gavage once): 59.0 ± 9.8 µmol/L
Uric acid 1 h ([3]; 2 mg/kg gavage once): 40.6 ± 10.6 µmol/L
Uric acid 3 h ([3]; 2 mg/kg gavage once): 50.1 ± 10.7 µmol/L
Uric acid 5 h ([3]; 2 mg/kg gavage once): 61.4 ± 7.1 µmol/L
serum uric acid level compared with the model group at the same time point ([4]; 2 mg/kg for 3 days, 1, 3, and 5 h after modeling, P<0.01): significantly reduce
Uric acid 0 h ([4]; serum, 2 mg/kg gavage for 3 days, day 3, 0 h, before potassium oxonate injection, mean ± SD, n=6): 39.2 ± 6.2 µmol/L
Uric acid 1 h ([4]; serum, 2 mg/kg gavage for 3 days, day 3, 1 h after potassium oxonate injection, mean ± SD): 34.4 ± 7.1 µmol/L
Uric acid 3 h ([4]; serum, 2 mg/kg gavage for 3 days, day 3, 3 h after potassium oxonate injection, mean ± SD): 31.2 ± 7.6 µmol/L
Uric acid 5 h ([4]; serum, 2 mg/kg gavage for 3 days, day 3, 5 h after potassium oxonate injection, mean ± SD): 24.7 ± 4.7 µmol/L
increase in all-cause mortality [2, 6]: 22%
increase in cardiovascular mortality [2, 6]: 34%
all-cause mortality, HR ([2]; Febuxostat vs allopurinol group, 95% CI 1.01-1.47): 1.22
cardiovascular mortality, HR ([2]; Febuxostat vs allopurinol group, 95% CI 1.03-1.73): 1.34
overall risk of adverse cardiovascular events, HR ([2]; Febuxostat vs allopurinol group, average of 32 months of treatment, 95% CI 0.87-1.23): 1.03
Sudden cardiac death, number of cases [2]: 83 cases
Sudden cardiac death, share of group [2]: 2.7%

Cc1oc(=O)oc1COC(=O)c1ccnc(-c2ccc3c(c2)c(C#N)nn3C(C)C)c1 [Compound 22, (5-methyl-2-oxo-1,3-dioxol-4-yl)methyl 2-(3-cyano-1-isopropyl-1H-indazol-5-yl) isonicotinate]
serum uric acid level compared with the model group at the same time point ([3]; 1.45 mg/kg group, 1 h after modeling, P<0.05): significantly reduce
serum uric acid level compared with the model group at the same time point ([3]; 2.9 mg/kg group, 1 and 5 h after modeling, P<0.05): significantly reduce
Uric acid 0 h ([3]; 1.45 mg/kg gavage once): 64.0 ± 13.1 µmol/L
Uric acid 1 h ([3]; 1.45 mg/kg gavage once): 88.1 ± 17.8 µmol/L
Uric acid 3 h ([3]; 1.45 mg/kg gavage once): 86.5 ± 11.5 µmol/L
Uric acid 5 h ([3]; 1.45 mg/kg gavage once): 78.1 ± 11.1 µmol/L
Uric acid 0 h ([3]; 2.90 mg/kg gavage once): 66.4 ± 7.0 µmol/L
Uric acid 1 h ([3]; 2.90 mg/kg gavage once): 88.3 ± 11.9 µmol/L
Uric acid 3 h ([3]; 2.90 mg/kg gavage once): 77.1 ± 13.2 µmol/L
Uric acid 5 h ([3]; 2.90 mg/kg gavage once): 70.9 ± 6.3 µmol/L

Pegloticase
patients experiencing severe immune allergic side effects ([5]; human, in vivo, iv): 20-40%
patients reaching the treatment endpoint of below 0.36 mmol/L ([5]; intravenous injection): 47%
